From ChEMBL document CHEMBL4000174, “Synthesis and antitumor activity of novel substituted uracil-1'(N)-acetic acid ester derivatives of 20(S)-camptothecins” (Eur J Med Chem, 2017) come the findings set out here.

The source made the active and inactive calls. The calls are words filed in the database; no cut-off is given here.

Series [1] has as its system A549. Briefly: Cell cycle arrest in human A549 cells assessed as accumulation at G2/M phase at 75 nM after 24 hrs by propidium iodide staining based flow cytometry (reference value: 8.36%). Format: functional.
The subject of series [2] is Bel-7402. Kind of series: Antitumor activity against human Bel7402 cells xenografted in BALB/c nude mouse assessed as tumor growth inhibition at 5 mg/kg, ip administered once in a week for two weeks starting from 6 days post tumor transplantation measured 27 to 30 days post tumor transplantation relative to control. Format: functional. The conditions noted are these: Bel-7402, ip, read-out: TGI.

Series [3] concerns Bel-7402. Kind of series: Antitumor activity against human Bel7402 cells xenografted in BALB/c nude mouse assessed as tumor volume at 5 mg/kg, ip administered once in a week for two weeks starting from 6 days post tumor transplantation measured 27 to 30 days post tumor transplantation relative to control. Format: functional.
A further series relates to A2780. Kind of series: Antiproliferative activity against human A2780 cells after 96 hrs by MTT assay. Format: functional, cell-based. The conditions noted are these: A2780, 96 h.
Series [4] has as its system A549. Kind of series: Cell cycle arrest in human A549 cells assessed as accumulation at G2/M phase at 25 nM after 24 hrs by propidium iodide staining based flow cytometry (reference value: 8.36%). Format: functional.
The subject of series [5] is A549. Briefly: Cell cycle arrest in human A549 cells assessed as accumulation at S phase at 8 nM after 24 hrs by propidium iodide staining based flow cytometry (reference value: 32.80%). Format: functional.
In a further series the test system is BGC-823. Briefly: Antiproliferative activity against human BGC823 cells after 96 hrs by MTT assay. To be noted: BGC-823, 96 h. It counts as functional, cell-based.
For series [6], the system named is A549. Briefly: Cell cycle arrest in human A549 cells assessed as accumulation at G0/G1 phase at 8 nM after 24 hrs by propidium iodide staining based flow cytometry (reference value: 58.84%). Format: functional.
A further series relates to Escherichia coli. Briefly: Inhibition of Escherichia coli topoisomerase 1-mediated relaxation of supercoiled Pcmv-6 plasmid DNA at 1 to 50 uM after 30 mins by ethidium bromide staining based agarose gel electrophoretic analysis.
Series [7] has as its system A549. Kind of series: Cell cycle arrest in human A549 cells assessed as accumulation at G0/G1 phase at 25 nM after 24 hrs by propidium iodide staining based flow cytometry (reference value: 58.84%). Format: functional.
For series [8], the system named is A549. Kind of series: Cell cycle arrest in human A549 cells assessed as accumulation at S phase at 75 nM after 24 hrs by propidium iodide staining based flow cytometry (reference value: 32.80%). Format: functional.
Series [9] has as its system A549. Briefly: Cell cycle arrest in human A549 cells assessed as accumulation at S phase at 25 nM after 24 hrs by propidium iodide staining based flow cytometry (reference value: 32.80%). Format: functional.
Series [10] concerns Mus musculus. Briefly: Antitumor activity in BALB/c nude mouse xenografted with human Bel7402 cells assessed as tumor volume at 5 mg/kg, ip administered once in a week for two weeks starting from 6 days post tumor transplantation measured every 3 days for 21 days (reference value: […]). To be noted: in vivo, 504 h.
Series [11] deals with A549. Kind of series: Cell cycle arrest in human A549 cells assessed as accumulation at G2/M phase at 8 nM after 24 hrs by propidium iodide staining based flow cytometry (reference value: 8.36%). Format: functional.
The test system of the next series is HCT-8. Briefly: Antiproliferative activity against human HCT8 cells after 96 hrs by MTT assay. Format: functional, cell-based. To be noted: HCT-8, 96 h.
The subject of series [12] is Bel-7402. Briefly: Antiproliferative activity against human Bel7402 cells after 96 hrs by MTT assay. Format: functional, cell-based. The conditions noted are these: Bel-7402, 96 h.
The subject of series [13] is A549. Kind of series: Cell cycle arrest in human A549 cells assessed as accumulation at G0/G1 phase at 75 nM after 24 hrs by propidium iodide staining based flow cytometry (reference value: 58.84%). It counts as functional.
Series [14] concerns Mus musculus. Kind of series: Toxicity in BALB/c nude mouse xenografted with human Bel7402 cells assessed as body weight at 5 mg/kg, ip administered once in a week for two weeks starting from 6 days post tumor transplantation measured every 3 days for 21 days (reference value: 14.5 g). The conditions noted are these: in vivo, 504 h. It counts as organism-based.
For series [15], the system named is A549. Kind of series: Antiproliferative activity against human A549 cells after 96 hrs by MTT assay. To be noted: A549, 96 h. Format: functional, cell-based.

As to `CC[C@@]1(O)C(=O)OCc2c1cc1n(c2=O)Cc2cc3c(CN(C)C)c(O)ccc3nc2-1` [TOPOTECAN], the Activity is 32.83% in the series on A549 [1]; 12.83% in the series with A549 [4]; 35.07% in the series on A549 [5]; 53.22% in the series on A549 [6]; 55.73% in the series with A549 [7]; 23.36% with A549 [8]. The Activity with A549 [9] was 31.44%; with A549 [11] it was 11.71%; in the series on A549 [13] it was 43.81%; with Mus musculus [14], “Non-Toxic”. For the same compound, the inhibition in vivo at 5 mg/kg in the series with Bel-7402 [2] stood at 45.5%. In addition, the T/C with Bel-7402 [3] turned out to be 58.8%. In addition, the IC50 with A2780 worked out at 78 nM; in the series on BGC-823, 78 nM; in the series with HCT-8, 22 nM; with Bel-7402 [12], 100 nM; with A549 [15], 7 nM. In the series on Escherichia coli, the inhibition result was “Active”. The tumor volume in the series on Mus musculus [10] was found to be 302 mm³.
